Data reported in ChEMBL document CHEMBL1148536, “Safrole oxide induces apoptosis by activating caspase-3, -8, and -9 in A549 human lung cancer cells” (Bioorg Med Chem Lett, 2006).
Activity calls are given as the source filed them. The calls are words filed in the database; no cut-off is given here.

Key:
Format in all cases: functional, cell-based
Caspase-8 (Homo sapiens) = Caspase-8 (Homo sapiens) (UniProt Q14790); assay: Effect on caspase 8 activation to initiate apoptosis in A549 human lung cancer cell line
Chain of Caspase-8 (Homo sapiens) (Q14790 217-374 limits assumed): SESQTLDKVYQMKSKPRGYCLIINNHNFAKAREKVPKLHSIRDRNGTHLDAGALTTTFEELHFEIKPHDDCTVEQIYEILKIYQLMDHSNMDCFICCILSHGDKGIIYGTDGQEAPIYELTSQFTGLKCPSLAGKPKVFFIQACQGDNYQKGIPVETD
Chain of Caspase-8 (Homo sapiens) (Q14790 385-479 limits assumed): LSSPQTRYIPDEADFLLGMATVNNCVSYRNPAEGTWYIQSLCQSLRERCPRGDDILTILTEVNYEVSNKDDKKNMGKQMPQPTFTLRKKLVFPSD

A549 [1] = assay: Effect on caspase 3 activation to initiate apoptosis in A549 human lung cancer cell line
A549 [2] = assay: Effect on caspase 9 activation to initiate apoptosis in A549 human lung cancer cell line

Activity (Caspase-8 (Homo sapiens)): Active
SMILES: c1cc2c(cc1CC1CO1)OCO2 (stereo not drawn)
Activity (A549 [1]): Active
Activity (A549 [2]): Active
